Results reported in ChEMBL document CHEMBL1201862, “PubChem BioAssay data set” (2004).
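Briefly, cells in 96-well plates were exposed to five compound concentrations for 48 h, and endpoints were estimated by linear interpolation. Here, GI50 denotes the concentration required for 50% inhibition of growth.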 The source made the active and inactive calls. No stated cut-off is given here; in the data, active = GI50 up to about 1.1 µM and inactive = higher.

Tests used:
Experiment in all cases: DTP human tumour cell line panel, 48 h
HCC 2998 = system: HCC 2998
OVCAR-5 = system: OVCAR-5
NCI-H460 = system: NCI-H460
SF-295 = system: SF-295
MCF7 = system: MCF7
IGROV-1 = system: IGROV-1
MDA-N = system: MDA-N
COLO 205 = system: COLO 205
OVCAR-3 = system: OVCAR-3
NCI-H226 = system: NCI-H226
HL-60 = system: HL-60
MDA-MB-231 = system: MDA-MB-231
SNB-19 = system: SNB-19
SNB-75 = system: SNB-75
MDA-MB-435 = system: MDA-MB-435
NCI-H522 = system: NCI-H522
U-251 = system: U-251
CAKI-1 = system: CAKI-1
HCT-15 = system: HCT-15
RXF 393 = system: RXF 393

SMILES	GI50 (HCC 2998)	GI50 (OVCAR-5)	GI50 (NCI-H460)	GI50 (SF-295)	GI50 (MCF7)	GI50 (IGROV-1)	GI50 (MDA-N)	GI50 (COLO 205)	GI50 (OVCAR-3)	GI50 (NCI-H226)	GI50 (HL-60)	GI50 (MDA-MB-231)	GI50 (SNB-19)	GI50 (SNB-75)	GI50 (MDA-MB-435)	GI50 (NCI-H522)	GI50 (U-251)	GI50 (CAKI-1)	GI50 (HCT-15)	GI50 (RXF 393)
O=C1NCc2ccccc2S(=O)(=O)n2cccc21	> 100 µM (inactive)	> 100 µM (inactive)	> 100 µM (inactive)	> 100 µM (inactive)	> 100 µM (inactive)	> 100 µM (inactive)	> 100 µM (inactive)	> 100 µM (inactive)	> 100 µM (inactive)	> 100 µM (inactive)	> 100 µM (inactive)	> 100 µM (inactive)	> 100 µM (inactive)	> 100 µM (inactive)	> 100 µM (inactive)	85.7 µM (inactive)	> 100 µM (inactive)	> 100 µM (inactive)	> 100 µM	
O=C1N2CCc3c([nH]c4ccccc34)C23CC2CCCCC12S3 (stereo unspecified)		> 100 µM (inactive)		> 100 µM (inactive)	39.4 µM (inactive)	> 100 µM (inactive)	> 100 µM (inactive)	> 100 µM (inactive)	> 100 µM (inactive)	> 100 µM (inactive)	95.5 µM (inactive)	> 100 µM (inactive)	> 100 µM (inactive)		> 100 µM (inactive)	> 100 µM (inactive)	> 100 µM (inactive)	> 100 µM (inactive)	> 100 µM	> 100 µM (inactive)
O=C1NC(=O)C(CCC(=O)c2cccc3ccccc23)C(=O)N1	> 100 µM (inactive)	> 100 µM (inactive)	> 100 µM (inactive)	60.1 µM (inactive)	> 100 µM (inactive)		> 100 µM (inactive)	> 100 µM (inactive)	> 100 µM (inactive)	77.8 µM (inactive)	> 100 µM (inactive)	> 100 µM (inactive)	> 100 µM (inactive)	26.4 µM (inactive)	> 100 µM (inactive)		> 100 µM (inactive)	> 100 µM (inactive)	> 100 µM	> 100 µM (inactive)
NCCc1nc(-c2nc(C(=O)O)cs2)cs1		> 100 µM (inactive)	> 100 µM (inactive)	> 100 µM (inactive)	> 100 µM (inactive)	> 100 µM (inactive)	> 100 µM (inactive)	> 100 µM (inactive)	> 100 µM (inactive)		> 100 µM (inactive)	> 100 µM (inactive)	> 100 µM (inactive)	> 100 µM (inactive)	> 100 µM (inactive)	> 100 µM (inactive)	> 100 µM (inactive)	> 100 µM (inactive)	> 100 µM	> 100 µM (inactive)
COc1nc2ncc([C@@H](O)[C@H](O)CO)nc2c(=O)[nH]1		> 100 µM (inactive)	> 100 µM (inactive)	> 100 µM (inactive)	> 100 µM (inactive)	> 100 µM (inactive)	> 100 µM (inactive)	> 100 µM (inactive)	> 100 µM (inactive)	> 100 µM (inactive)	63.2 µM (inactive)	> 100 µM (inactive)	> 100 µM (inactive)	> 100 µM (inactive)	> 100 µM (inactive)	> 100 µM (inactive)	> 100 µM (inactive)	> 100 µM (inactive)	> 100 µM	> 100 µM (inactive)
CN(C)CCNC(=O)Cn1cc([N+](=O)[O-])c(=O)c2ccccc21	> 100 µM (inactive)	> 100 µM (inactive)	> 100 µM (inactive)	> 100 µM (inactive)	> 100 µM (inactive)	> 100 µM (inactive)	> 100 µM (inactive)	> 100 µM (inactive)	> 100 µM (inactive)	> 100 µM (inactive)	> 100 µM (inactive)	> 100 µM (inactive)	> 100 µM (inactive)	58.3 µM (inactive)	> 100 µM (inactive)	> 100 µM (inactive)	> 100 µM (inactive)	> 100 µM (inactive)	> 100 µM	
COc1ccccc1NCC(=O)Nn1c(C)nc2ccc(S(=O)(=O)Nc3ccccc3OC)cc2c1=O	> 100 µM (inactive)	> 100 µM (inactive)	> 100 µM (inactive)	36.1 µM (inactive)	63 µM (inactive)	42.7 µM (inactive)	29.7 µM (inactive)	> 100 µM (inactive)	83.4 µM (inactive)	> 100 µM (inactive)	47.1 µM (inactive)	> 100 µM (inactive)	> 100 µM (inactive)	> 100 µM (inactive)	26.7 µM (inactive)	35.6 µM (inactive)	> 100 µM (inactive)	> 100 µM (inactive)	56.1 µM	
Oc1ccc(-c2csc(N/N=C3\NC/C(=C/c4ccc5c(c4)OCO5)S3)n2)cc1O	40.6 µM (inactive)	47.2 µM (inactive)	31 µM (inactive)	43.2 µM (inactive)	6.43 µM (inactive)	20.6 µM (inactive)	3.4 µM (inactive)	29.1 µM (inactive)		43.5 µM (inactive)	> 10 µM (inactive)	55.8 µM (inactive)	14.4 µM (inactive)	1.73 µM (inactive)	3.21 µM (inactive)		22.1 µM (inactive)	32.4 µM (inactive)	19.1 µM	
O=C(NCCCCCCCCCCCCNC(=O)Nc1cccc2ccccc12)Nc1cccc2ccccc12	14.2 µM (inactive)	25.2 µM (inactive)	15.5 µM (inactive)	14.1 µM (inactive)	18.3 µM (inactive)	18.4 µM (inactive)	17.4 µM (inactive)	20.6 µM (inactive)	16.7 µM (inactive)		18.2 µM (inactive)	20.7 µM (inactive)	15.1 µM (inactive)	12.9 µM (inactive)	17.9 µM (inactive)	13.7 µM (inactive)	14.3 µM (inactive)	17.9 µM (inactive)	18.4 µM	15.2 µM (inactive)
CCCCN1C(=O)C2Cc3c([nH]c4ccccc34)C(c3cccc(O)c3)N2C1=O (stereo unspecified)	18.9 µM (inactive)	18.8 µM (inactive)	20 µM (inactive)	17.4 µM (inactive)	18.3 µM (inactive)	17.5 µM (inactive)	19.2 µM (inactive)	19.6 µM (inactive)	16.3 µM (inactive)	21.5 µM (inactive)	22.8 µM (inactive)	15.5 µM (inactive)	19.1 µM (inactive)	18.5 µM (inactive)	17.3 µM (inactive)	20 µM (inactive)	19 µM (inactive)	18.7 µM (inactive)	18.7 µM	
C=C(C)C1Cc2c(cc3c(c2O)c(=O)c2ccccc2n3C)O1 (stereo unspecified)	12.1 µM (inactive)	13.3 µM (inactive)	3.1 µM (inactive)	5.78 µM (inactive)	2.94 µM (inactive)	1.87 µM (inactive)	3.2 µM (inactive)	5.75 µM (inactive)	12.6 µM (inactive)	2.41 µM (inactive)	2.77 µM (inactive)	2.2 µM (inactive)	2.61 µM (inactive)	4.5 µM (inactive)	5.78 µM (inactive)		3.33 µM (inactive)	2.99 µM (inactive)	2.75 µM	2.75 µM (inactive)
CC(=O)NC1C(OCc2ccccc2)OC(CO)C(O)C1OC(C)C(=O)NC(C)C(=O)N[C@@H](CCC(=O)OCCCNC1c2ccccc2Nc2cccc([N+](=O)[O-])c21)C(N)=O (stereo partly specified)	< 0.01 µM (active)	0.0223 µM (active)	< 0.01 µM (active)	0.0155 µM (active)	0.0124 µM (active)	0.0222 µM (active)	0.0152 µM (active)	< 0.01 µM (active)	< 0.01 µM (active)		< 0.0117 µM (active)	0.0282 µM (active)	< 0.0124 µM (active)	0.0135 µM (active)	0.0157 µM (active)	< 0.01 µM (active)	< 0.01 µM (active)	< 0.01 µM (active)	0.0028 µM	0.0141 µM (active)
CCCCC/C=C\C=C1\C(=O)C=C[C@@H]1C/C=C\CCCC(=O)O		3.41 µM (inactive)	6.04 µM (inactive)	3.87 µM (inactive)	4.09 µM (inactive)	2.75 µM (inactive)	1.96 µM (inactive)	2.96 µM (inactive)	2.9 µM (inactive)	7.38 µM (inactive)	2.41 µM (inactive)	9.2 µM (inactive)	4.51 µM (inactive)	9.66 µM (inactive)	2.42 µM (inactive)		2.48 µM (inactive)	3.37 µM (inactive)	5.24 µM	1.94 µM (inactive)
COC(=O)/C1=C/c2c([nH]c3ccccc23)/C(C(=O)OC)=C\c2c1[nH]c1ccccc21 [CAULERPIN]		> 50 µM (inactive)	13.3 µM (inactive)	40.3 µM (inactive)	10.3 µM (inactive)	7.53 µM (inactive)	15.5 µM (inactive)	> 50 µM (inactive)	24.8 µM (inactive)	> 50 µM (inactive)		13.7 µM (inactive)	33.7 µM (inactive)		14.7 µM (inactive)	6.08 µM (inactive)	19.5 µM (inactive)	37.9 µM (inactive)	22 µM	12.7 µM (inactive)
O=c1c(O)c(-c2ccc(O)cc2O)oc2cc(O)cc(O)c12 [MORIN]	> 100 µM (inactive)	> 100 µM (inactive)	> 100 µM (inactive)	> 100 µM (inactive)	> 100 µM (inactive)	> 100 µM (inactive)	> 100 µM (inactive)	> 100 µM (inactive)	> 100 µM (inactive)	> 100 µM (inactive)	> 100 µM (inactive)	> 100 µM (inactive)	> 100 µM (inactive)	> 100 µM (inactive)	> 100 µM (inactive)	> 10 µM (inactive)	> 100 µM (inactive)	> 100 µM (inactive)	> 100 µM	
